According to patent US20110105550A1 (SALIX PHARMACEUTICALS, LTD., priority 2008, published 2011):
“Also recorded” adds a separate entry of the source.

Assays:
Type in all cases: physicochemical
[1] = Dynamic vapor sorption/desorption (DVS) of amorphous preparations
Procedure: Based on the data, relative humidity stressing studies of the two amorphous materials at 40° C./75% RH are recommended.

[2] = Stressing under various relative humidities (RH), solid form by XRPD; details: for RH stability: solid form after exposure, 58% RH / RH stability: solid form after exposure, 75% RH: duration not printed in Table 1, am = amorphous
Description: The jar was sealed and stored at either ambient temperature or in an oven at elevated temperature.

[3] = Rifaximin drying experiments, solid form by XRPD
[4] = Automated moisture sorption/desorption (moisture balance)
Procedure: Moisture sorption/desorption data were collected on a VTI SGA-100 Vapor Sorption Analyzer. Sorption and desorption data were collected over a range of 5% to 95% relative humidity (RH) at 10% RH intervals under a nitrogen purge. Samples were not dried prior to analysis. Equilibrium criteria used for analysis were less than 0.0100% weight change in 5 minutes, with a maximum equilibration time of 3 hours if the weight criterion was not met. Data were not corrected for the initial moisture content of the samples. NaCl and PVP were used as calibration standards.

## CO[C@H]1/C=C/O[C@@]2(C)Oc3c(C)c(O)c4c(O)c(c5c(nc6cc(C)ccn65)c4c3C2=O)NC(=O)/C(C)=C\C=C\[C@H](C)[C@H](O)[C@@H](C)[C@@H](O)[C@@H](C)[C@H](OC(C)=O)[C@@H]1C [lyophilized amorphous rifaximin]
[1]; 5 to 95% relative humidity
  Hygroscopicity (DVS): moderately hygroscopic
[1]; from 5 to 95% relative humidity
  DVS uptake of water (weight gain): approximately 8%
[1]; post-DVS
  Crystallization of post-DVS sample: Crystallization was not observed

## CO[C@H]1/C=C/O[C@@]2(C)Oc3c(C)c(O)c4c(O)c(c5c(nc6cc(C)ccn65)c4c3C2=O)NC(=O)/C(C)=C\C=C\[C@H](C)[C@H](O)[C@@H](C)[C@@H](O)[C@@H](C)[C@H](OC(C)=O)[C@@H]1C [Form β-1]
[2]; 33% RH, 4 days
  Final Form (XRPD): β
[2]; 58% RH, 3 days
  Final Form (XRPD): β + peak @4.87 °2θ
[2]; 58% RH, listed as β-1
  RH stability: solid form after exposure, 58% RH: β + pk
[2]; 75% RH, 3 days
  Final Form (XRPD): β
[2]; 75% RH, listed as β-1
  RH stability: solid form after exposure, 75% RH: β
[2]; 94% RH, 3 days
  Final Form (XRPD): β
[2]; 94% RH, duration not given
  RH stability: solid form after exposure, 94% RH: β

## CO[C@H]1/C=C/O[C@@]2(C)Oc3c(C)c(O)c4c(O)c(c5c(nc6cc(C)ccn65)c4c3C2=O)NC(=O)/C(C)=C\C=C\[C@H](C)[C@H](O)[C@@H](C)[C@@H](O)[C@@H](C)[C@H](OC(C)=O)[C@@H]1C [Form ζ]
[3]; air dry
  XRPD Form after drying: γ
[3]; open vial in hood
  XRPD Form after drying: γ
[3]; stored in refrigerator 3 weeks
  XRPD Form after storage: ζ
[3]; vac dry
  XRPD Form after drying: γ + η
[3]; vac oven, 40° C., 1 day
  XRPD Form after drying: remained unchanged
[3]; vac oven, 45° C., 2 days
  XRPD Form after drying: η
[3]; vac oven, ambient, 1 day
  XRPD Form after drying: Form η
[3]; vac oven, ambient, 1 day, listed as ζ
  XRPD Form after drying: η
[3]; vacuum dried (Table 1)
  Solid form after vacuum drying: η or and γ + η
[2]; 43% RH, 3 days
  Final Form (XRPD): Form γ
[2]; 43% RH, 3 days, listed as ζ
  Final Form (XRPD): γ
[2]; 58% RH, 3 days
  Final Form (XRPD): Form γ-1 (ζ)
[2]; 75% RH, 3 days
  Final Form (XRPD): Form γ-1 (ζ)
[2]; 94% RH, 3 days
  Final Form (XRPD): Form β+γ-1 (ζ); also recorded: Form β30 γ-1 (ζ)
[2]; stability chamber, 75% RH at 40° C., 1 day
  Final Form (XRPD): ζ + γ^e

## CO[C@H]1/C=C/O[C@@]2(C)Oc3c(C)c(O)c4c(O)c(c5c(nc6cc(C)ccn65)c4c3C2=O)NC(=O)/C(C)=C\C=C\[C@H](C)[C@H](O)[C@@H](C)[C@@H](O)[C@@H](C)[C@H](OC(C)=O)[C@@H]1C [Form ε, reference compound]
[3]; vac oven 60-65° C., 3 days, listed as ε
  XRPD Form after drying: ε dry

## CO[C@H]1/C=C/O[C@@]2(C)Oc3c(C)c(O)c4c(O)c(c5c(nc6cc(C)ccn65)c4c3C2=O)NC(=O)/C(C)=C\C=C\[C@H](C)[C@H](O)[C@@H](C)[C@@H](O)[C@@H](C)[C@H](OC(C)=O)[C@@H]1C [Form β-2]
[3]; vac oven, 40° C., 1 day, listed as β-2
  XRPD Form after drying: α dry
[3]; vacuum dried (Table 1 column), listed as β-2
  Solid form after vacuum drying: α dry
[2]; under N2 atmosphere, 20% RH, 3 days
  Final Form (XRPD): α^d and α

## CO[C@H]1/C=C/O[C@@]2(C)Oc3c(C)c(O)c4c(O)c(c5c(nc6cc(C)ccn65)c4c3C2=O)NC(=O)/C(C)=C\C=C\[C@H](C)[C@H](O)[C@@H](C)[C@@H](O)[C@@H](C)[C@H](OC(C)=O)[C@@H]1C [Form α-dry]
[3]; vac oven 50° C., 1 day
  XRPD Form after drying: α dry
[3]; vac oven 50° C., 1 day, vac oven 60° C.
  XRPD Form after drying: α dry
[3]; vac oven 60-65° C., 3 days, listed as α dry
  XRPD Form after drying: α dry
[3]; vacuum dried (Table 1 column), listed as α dry
  Solid form after vacuum drying: α dry
[4]; sorption from 5% RH to 95% RH, desorption from 95% RH to 5% RH, listed as α dry
  Post-moisture sorption/desorption XRPD form: α dry
[2]; 33% RH, 2 days
  Final Form (XRPD): α
[2]; 33% RH, 7 days
  Final Form (XRPD): α
[2]; 43% RH, 4 days
  Final Form (XRPD): α + β
[2]; 43% RH, 11 days
  Final Form (XRPD): β + (α)
[2]; 58% RH, 2 days
  Final Form (XRPD): β
[2]; 58% RH, listed as α dry
  RH stability: solid form after exposure, 58% RH: β
[2]; 75% RH, 2 days
  Final Form (XRPD): β
[2]; 75% RH, listed as α dry
  RH stability: solid form after exposure, 75% RH: β
[2]; 94% RH, 2 days
  Final Form (XRPD): β

## CO[C@H]1/C=C/O[C@@]2(C)Oc3c(C)c(O)c4c(O)c(c5c(nc6cc(C)ccn65)c4c3C2=O)NC(=O)/C(C)=C\C=C\[C@H](C)[C@H](O)[C@@H](C)[C@@H](O)[C@@H](C)[C@H](OC(C)=O)[C@@H]1C [Form α, reference compound]
[2]; P2O5, 4 days
  Final Form (XRPD): α dry

## CO[C@H]1/C=C/O[C@@]2(C)Oc3c(C)c(O)c4c(O)c(c5c(nc6cc(C)ccn65)c4c3C2=O)NC(=O)/C(C)=C\C=C\[C@H](C)[C@H](O)[C@@H](C)[C@@H](O)[C@@H](C)[C@H](OC(C)=O)[C@@H]1C [Form δ, reference compound]
[2]; P2O5, 3 days
  Final Form (XRPD): ε dry

## CO[C@H]1/C=C/O[C@@]2(C)Oc3c(C)c(O)c4c(O)c(c5c(nc6cc(C)ccn65)c4c3C2=O)NC(=O)/C(C)=C\C=C\[C@H](C)[C@H](O)[C@@H](C)[C@@H](O)[C@@H](C)[C@H](OC(C)=O)[C@@H]1C [Form γ, reference compound]
[3]; vac oven, ambient, 1 day
  XRPD Form after drying: remained unchanged
[4]; desorption 95 to 5% RH
  wt loss from 95 to 5% RH: 11.7%
[4]; equilibration at 5% RH
  wt loss upon equilibration at 5% RH: 2.4%
[4]; moisture balance
  Hygroscopicity: hygroscopic
[4]; sorption 5 to 95% RH
  wt gain from 5 to 95% RH: 10.8%

## CO[C@H]1/C=C/O[C@@]2(C)Oc3c(C)c(O)c4c(O)c(c5c(nc6cc(C)ccn65)c4c3C2=O)NC(=O)/C(C)=C\C=C\[C@H](C)[C@H](O)[C@@H](C)[C@@H](O)[C@@H](C)[C@H](OC(C)=O)[C@@H]1C [Form η]
[3]; vac oven, 40° C., 1 day
  XRPD Form after drying: remained unchanged
[3]; vac oven, 40° C., 1 day, listed as η
  XRPD Form after drying: η
[3]; vacuum dried (Table 1 column), listed as η
  Solid form after vacuum drying: η
